From patent publication US20110201620A1, “2-(3-AMINOARYL) AMINO-4-ARYL-THIAZOLES AND THEIR USE AS C-KIT INHIBITORS” (AB SCIENCE, priority 2002, published 2011)

Assays:
[1] = Solubility; assay type: physicochemical
Procedure: For detailed procedure refer to patent WO/2008/098949. AB1010 is also manufactured by AB Science, S.A. (France), or by Prestwick Chemical, Inc. (France). The chemical structure was confirmed by nuclear magnetic resonance, mass spectrometry, ultraviolet and infrared spectrometry, and elemental analysis. […] The compound, a white powder, was prepared according to the art to provide tablets. Tablet containing masitinib was used for each experiment.

[2] = Phase 2 clinical trial in advanced GIST, safety assessment; assay type: in vivo, human
Excerpt: Methods; Patients: Patients enrolled in this study were aged over 18 years with inoperable, non-pretreated, histologically proven locally advanced or metastatic, c-Kit positive GIST. […] Exclusion criteria included: inadequate organ function defined via blood tests, severe liver or cardiac failure, and severe neurological or psychiatric disorders. Patients receiving a concomitant treatment within 4 weeks before inclusion, and pregnant or lactating women were also excluded. […] All adverse events (AEs), including abnormal serology or haematology, were recorded regardless of causality.

[3] = N = 30, Suspected: treatment related or not assessable

Cc1ccc(NC(=O)c2ccc(CN3CCN(C)CC3)cc2)cc1Nc1nc(-c2cccnc2)cs1 [Compound 066, 4-(4-methyl-piperazin-1-ylmethyl)-N-[4-methyl-3-(4-pyridin-3-yl-thiazol-2-ylamino)-phenyl]-benzamide]
solubility in 0.1 M HCl ([1]; 0.1 M HCl): freely soluble
solubility in 0.1 M NaOH ([1]; 0.1 M NaOH): practically insoluble
solubility in dimethylsulfoxide ([1]; dimethylsulfoxide): freely soluble
solubility in ethanol ([1]; ethanol): slightly soluble
solubility in n-hexane ([1]; n-hexane): practically insoluble
solubility in propylene glycol ([1]; propylene glycol): slightly soluble
solubility in water ([1]; water): soluble
patients reporting one grade 4 AE (skin exfoliation) ([2]; 1/30 patient): 3.3%
patients with treatment interruption for treatment-related haematological toxicity ([2]; 1/30 patient): 3%
patients with grade 3 treatment-related rash ([2]; 3/30 patients): 10%
patients experiencing serious adverse events (SAE) ([2]; 8/30 patients): 27%
patients with treatment interruption for non-haematological AEs ([2]; 13/30 patients): 43%
patients with at least one grade 3 treatment-related AE ([2]; 14/30 patients): 47%
patients with treatment interruption for more than 8 days ([2]; 16/30 patients): 53.3%
patients with treatment-related oedemas (all types) ([2]; 21/30 patients): 70%
patients reporting at least one treatment-related AE ([2]; ITT population): All patients
treatment-related toxicity per patient: abdominal pain ([2]; ITT population): 33%
treatment-related toxicity per patient: asthenia ([2]; ITT population): 83%
treatment-related toxicity per patient: cutaneous rash ([2]; ITT population): 40%
treatment-related toxicity per patient: diarrhoea ([2]; ITT population): 57%
treatment-related toxicity per patient: eye oedema ([2]; ITT population): 47%
treatment-related toxicity per patient: muscle spasms ([2]; ITT population): 40%
treatment-related toxicity per patient: nausea ([2]; ITT population): 47%
treatment-related toxicity per patient: peripheral oedema ([2]; ITT population): 20%
treatment-related toxicity per patient: pruritus ([2]; ITT population): 33%
treatment-related toxicity per patient: upper abdominal pain ([2]; ITT population): 23%
treatment-related toxicity per patient: vomiting ([2]; ITT population): 23%
Abdominal Pain Upper, All causalities, All grades ([2]; N = 30): 9 (30.0%) Number (%) of patients
Abdominal Pain, All causalities, All grades ([2]; N = 30): 16 (53.3%) Number (%) of patients
Abdominal Pain, All causalities, G3 + G4 ([2]; N = 30): 2 (6.7%) Number (%) of patients
Anaemia, All causalities, All grades ([2]; N = 30): 6 (20.0%) Number (%) of patients
Anaemia, All causalities, G3 + G4 ([2]; N = 30): 1 (3.3%) Number (%) of patients
Asthenia, All causalities, All grades ([2]; N = 30): 27 (90.0%) Number (%) of patients
Asthenia, All causalities, G3 + G4 ([2]; N = 30): 1 (3.3%) Number (%) of patients
Diarrhoea, All causalities, All grades ([2]; N = 30): 18 (60.0%) Number (%) of patients
Diarrhoea, All causalities, G3 + G4 ([2]; N = 30): 1 (3.3%) Number (%) of patients
Dry Skin, All causalities, All grades ([2]; N = 30): 4 (13.3%) Number (%) of patients
Erythema, All causalities, All grades ([2]; N = 30): 6 (20.0%) Number (%) of patients
Eye Oedema, All causalities, All grades ([2]; N = 30): 14 (46.7%) Number (%) of patients
Eye Oedema, All causalities, G3 + G4 ([2]; N = 30): 1 (3.3%) Number (%) of patients
Eyelid Oedema, All causalities, All grades ([2]; N = 30): 7 (23.3%) Number (%) of patients
Lacrimation Increased, All causalities, All grades ([2]; N = 30): 4 (13.3%) Number (%) of patients
Mucosal Inflammation, All causalities, All grades ([2]; N = 30): 5 (16.7%) Number (%) of patients
Mucosal Inflammation, All causalities, G3 + G4 ([2]; N = 30): 1 (3.3%) Number (%) of patients
Muscle Spasms, All causalities, All grades ([2]; N = 30): 12 (40.0%) Number (%) of patients
Myalgia, All causalities, All grades ([2]; N = 30): 4 (13.3%) Number (%) of patients
Nausea, All causalities, All grades ([2]; N = 30): 15 (50.0%) Number (%) of patients
Neutropenia, All causalities, All grades ([2]; N = 30): 5 (16.7%) Number (%) of patients
Neutropenia, All causalities, G3 + G4 ([2]; N = 30): 2 (6.7%) Number (%) of patients
Oedema Peripheral, All causalities, All grades ([2]; N = 30): 8 (26.7%) Number (%) of patients
Pruritus, All causalities, All grades ([2]; N = 30): 11 (36.7%) Number (%) of patients
Pruritus, All causalities, G3 + G4 ([2]; N = 30): 1 (3.3%) Number (%) of patients
Rash, All causalities, All grades ([2]; N = 30): 12 (40.0%) Number (%) of patients
Rash, All causalities, G3 + G4 ([2]; N = 30): 3 (10.0%) Number (%) of patients
Vomiting, All causalities, All grades ([2]; N = 30): 10 (33.3%) Number (%) of patients
Abdominal Pain Upper, Suspected, All grades [2, 3]: 7 (23.3%) Number (%) of patients
Abdominal Pain, Suspected, All grades [2, 3]: 10 (33.3%) Number (%) of patients
Abdominal Pain, Suspected, G3 + G4 [2, 3]: 1 (3.3%) Number (%) of patients
Anaemia, Suspected, All grades [2, 3]: 4 (13.3%) Number (%) of patients
